According to article PMC4657098, “A Review of the Updated Pharmacophore for the Alpha 5 GABA(A) Benzodiazepine Receptor Model” (International Journal of Medicinal Chemistry, 2015):
pKi: −log10 of the molar value. Where two headings read alike, the source gives them in different places.

Assays:
Design in all cases: expressed in transfected cells
α5β3γ2 GABAA/BzR = α5β3γ2 GABAA/BzR (Homo sapiens, UniProt P18507+P31644); assay: Competition binding to HEK cell membranes, α5β3γ2; conditions: read-out: Ki α5
α1β3γ2 GABAA/BzR = α1β3γ2 GABAA/BzR (Homo sapiens, UniProt P14867+P18507); assay: Competition binding to HEK cell membranes, α1β3γ2; conditions: read-out: Ki α1
α2β3γ2 GABAA/BzR = α2β3γ2 GABAA/BzR (Homo sapiens, UniProt P18507+P47869); assay: Competition binding to HEK cell membranes, α2β3γ2; conditions: read-out: Ki α2
α6β3γ2 GABAA/BzR = α6β3γ2 GABAA/BzR (Homo sapiens, UniProt P18507+Q16445); assay: Competition binding to HEK cell membranes, α6β3γ2
α3β3γ2 GABAA/BzR = α3β3γ2 GABAA/BzR (Homo sapiens, UniProt P18507+P34903); assay: Competition binding to HEK cell membranes, α3β3γ2; conditions: read-out: Ki α3

Structure (SMILES) | pKi (α5β3γ2 GABAA/BzR) | pKi (α1β3γ2 GABAA/BzR) | pKi (α2β3γ2 GABAA/BzR) | pKi (α6β3γ2 GABAA/BzR; read-out: Ki α6) | pKi (α3β3γ2 GABAA/BzR) | pKi (α6β3γ2 GABAA/BzR; Ki α6)
C[Si](C)(C)C#Cc1ccc2c(c1)C(=O)N1CCC[C@H]1c1c(C(=O)OCC(F)(F)F)ncn1-2 [JYI-11] | 6.19 | 5.30 | 5.30 | 8.40 | – | –
C=Cc1ccc2c(c1)C(=O)N1CCC[C@H]1c1c(C(=O)OCC(F)(F)F)ncn1-2 [JYI-12] | 8.35 | 7.04 | 7.41 | 8.17 | – | –
O=C(OCC(F)(F)F)c1ncn2c1C1CCCN1C(=O)c1cc(-c3ccco3)ccc1-2 (centres unmarked) [JYI-13] | 7.80 | 5.30 | 7.20 | 8.08 | – | –
O=C(OCC(F)(F)F)c1ncn2c1[C@@H]1CCCN1C(=O)c1ccccc1-2 [JYI-14] | 7.89 | 7.49 | 7.60 | 6.25 | – | –
C#Cc1ccc2c(c1)C(=O)N1CCC[C@H]1c1c(C(=O)OCC(F)(F)F)ncn1-2 [JYI-15] | 8.32 | 6.69 | 6.09 | 7.66 | – | –
CC(C)(C)OC(=O)c1ncn2c1[C@@H]1CCCN1C(=O)c1cc(-c3cccs3)ccc1-2 [JYI-19] | 7.47 | 8.66 | 6.69 | 7.90 | – | –
CCOC(=O)c1ncn2c1CN=C(c1ccccc1F)c1cc(Br)ccc1-2 [JYI-32] | 8.53 | 8.51 | 8.30 | 7.28 | – | –
O=C1CN=C(c2ccccc2F)c2cc(Br)ccc2N1 [JYI-42] | 9.59 | 9.59 | 9.84 | – | 9.56 | –
O=C(O)c1ncn2c1CN=C(c1ccccc1F)c1cc(Br)ccc1-2 [JYI-47] | 9.37 | 8.56 | 8.64 | – | 9.29 | –
CCOC(=O)c1ncn2c1CN=C(c1ccccc1F)c1cc(-c3ccco3)ccc1-2 [JYI-48] | 7.50 | 7.12 | 7.04 | – | 7.89 | –
O=C(OCC(F)(F)F)c1ncn2c1CN=C(c1ccccc1F)c1cc(Br)ccc1-2 [JYI-49] | 8.17 | 8.73 | 8.62 | 5.47 | – | –
C[Si](C)(C)C#Cc1ccc2c(c1)C(c1ccccc1F)=NCC(=O)N2 [JYI-55] | 7.61 | 7.38 | – | – | 9.30 | –
Cc1nnc2n1-c1ccc(Br)cc1C(c1ccccc1F)=NC2 [JYI-57] | 10.44 | 10.12 | 10.12 | – | 9.88 | –
C#Cc1ccc2c(c1)C(c1ccccc1F)=NCc1c(C(=O)OCC(F)(F)F)ncn1-2 [JYI-59 (C22H13N3O2F4)] | – | – | 8.59 | 5.30 | – | –
C#Cc1ccc2c(c1)C(c1ccccc1F)=NCC(=O)N2 [JYI-60 (C17H11N2OF)] | 8.77 | – | – | 5.30 | 8.37 | –
C#Cc1ccc2c(c1)C(c1ccccc1F)=NCc1nnc(C)n1-2 [JYI-70] | 9.25 | 8.20 | 8.68 | 5.30 | – | –
Cc1nnc2n1-c1ccc(C#C[Si](C)(C)C)cc1C(c1ccccc1F)=NC2 [JYI-72] | 7.94 | 7.31 | 7.73 | – | – | –
CCOC(=O)c1ncc2[nH]c3cc(OC)c(OC)cc3c2c1CC [MSR-I-032] | – | 8.21 | 7.73 | 7.13 | 8.40 | –
CN(C)C=C1N=C2CN=C(c3ccccc3)c3cc(Br)ccc3N2C1=O [PS-1-34B] | – | – | 8.38 | – | 8.41 | –
CN1CCN(C=C2N=C3CN=C(c4ccccc4)c4cc(Br)ccc4N3C2=O)CC1 [PS-1-35] | – | – | 7.80 | – | 7.61 | –
COc1ccc(-n2nc3c4cc(Cl)ccc4[nH]cc-3c2=O)cc1 [PZII-028] | 9.49 | 9.70 | – | 8.72 | 9.70 | –
COc1ccc(-n2nc3c4ccc(OC)cc4[nH]cc-3c2=O)cc1 [PZII-029] | 9.28 | 9.47 | – | 8.00 | 9.10 | –
C#Cc1ccc2c(c1)C(c1ccccc1F)=N[C@@H](C)c1c(C(=O)OCC)ncn1-2 [SH-O53-S-CH3-2′F] | – | – | – | – | – | 5.30
COCc1ncn2c1CN(C)C(=O)c1cc(Cl)ccc1-2 [SH-TSC-1] | 8.21 | 6.44 | 6.74 | – | 6.48 | –
CC(C)(C)OC(=O)c1cc2c(cn1)[nH]c1ccccc12 [SH-TSC-2] | 7.16 | – | 10.38 | – | 10.46 | –
C#Cc1ccc2[nH]c3cnc(C(=O)OC(C)(C)C)cc3c2c1 [WY-TSC-4] | 7.29 | – | – | – | 8.79 | –
Cc1nnc2n1-c1ccc(Br)cc1C(c1ccccc1)=NC2 [XLi268] | 9.20 | 8.55 | 9.16 | – | – | –
C#Cc1ccc2c(c1)C(c1ccccc1Cl)=NCC(=O)N2C [XLi352] | 8.71 | 8.81 | 9.00 | – | – | –
